{"source": "patent US20160160224A1", "about": "“CRYPTOSPORIDIUM TRANSFECTION METHODS AND TRANSFECTED CRYPTOSPORIDIUM CELLS” (UNIVERSITY OF GEORGIA RESEARCH FOUNDATION, INC., priority 2013, published 2016)", "system": "C. parvum", "assay": "Nluc luciferase assay of transfected C. parvum cultured in HCT-8 cells in the presence of drug", "assay_type": "cell-based, Cryptosporidium parvum", "conditions": "electroporated (Nluc-transfected) C. parvum grown in paramomycin on HCT-8 host cells; FIG. 3D", "from_the_text": "Next, we performed transfections and then cultured the transfected parasites in the presence of paramomycin, a drug that reduces growth of C. parvum but not the mammalian host cell. […] (FIG. 3D). We also tested an Nluc plasmid that lacks the Cryptosporidium promoter but carries Toxoplasma flanking sequences instead. […] Lastly, we tested whether parasite vectors can transduce host cells by deliberately delivering plasmid DNA into the HCT-8 host cell cytoplasm by lipofection. […] Collectively these measurements confirm that Apicomplexa and mammals have divergent primary sequence elements that drive transcription and subsequent RNA processing. Cryptosporidium transfection therefore depends on the introduction of a parasite species specific vector into viable parasites. Moreover, passive DNA delivery into the host is not relevant for activity and host cells are not transfected even when DNA is deliberately introduced into the host. […]\nFor in vitro experiments, cells were scraped from T-25 flasks or 24-well plates and collected after 48 hours of incubation. […] After five minutes of incubation at room temperature, the cell lysate was added to white 96 well plates and luminescence was measured on a luminometer (BioTek Instruments, Inc., Winooski, Vt.). The read out was quantified in terms of relative luminescence units (RLU).", "data": [{"smiles": "NC[C@@H]1O[C@H](O[C@H]2[C@@H](O)[C@H](O[C@@H]3[C@@H](O)[C@H](N)C[C@H](N)[C@H]3O[C@H]3O[C@H](CO)[C@@H](O)[C@H](O)[C@H]3N)O[C@@H]2CO)[C@H](N)[C@@H](O)[C@@H]1O", "note": "[Paramomycin, paramomycin]", "values": [{"measurement": "Nluc expression (luciferase activity)", "result": "reduction of Nluc expression"}]}]}
